Experimental data from ChEMBL document CHEMBL3397019, “Enhancement of antioxidant effects of naringin after atmospheric pressure dielectric barrier discharge plasma treatment” (Bioorg Med Chem Lett, 2015).

How the values were obtained:
Format in all cases: physicochemical
[1] = Antioxidant activity assessed as ONOO- scavenging activity
[2] = Antioxidant activity assessed as DPPH free radical scavenging activity
[3] = Antioxidant activity assessed as ONOO- scavenging activity using plasma treated compound
[4] = Antioxidant activity assessed as DPPH free radical scavenging activity using plasma treated compound

IC50 [1] | IC50 [2] | IC50 [3] | IC50 [4] | Compound
5.2 µM |  |  |  | CC(C)(S)[C@H](N)C(=O)O
> 300 µM | > 300 µM |  |  | C[C@H]1O[C@@H](O[C@H]2[C@H](Oc3cc(O)c4c(c3)O[C@H](c3ccc(O)cc3)CC4=O)O[C@H](CO)[C@@H](O)[C@@H]2O)[C@H](O)[C@@H](O)[C@@H]1O
 | 23.9 µM |  |  | Oc1cc(O)c2c(c1)O[C@H](c1ccc(O)c(O)c1)[C@@H](O)C2 [CIANIDANOL]

The next lines start with the molecule.

Compound | IC50 [1] | IC50 [2] | IC50 [3] | IC50 [4]
COCO[C@H]1[C@H](O)[C@@H](O)[C@H](O[C@H]2[C@H](Oc3cc(O)c4c(c3)O[C@H](c3ccc(O)cc3)CC4=O)O[C@H](CO)[C@@H](O)[C@@H]2O)O[C@@H]1C | 256 µM | 148 µM |  | 
C[C@H]1O[C@@H](O[C@H]2[C@H](Oc3cc(O)c4c(c3)O[C@@H](c3ccc(O)cc3)CC4=O)O[C@H](CO)[C@@H](O)[C@@H]2O)[C@H](O)[C@@H](O)[C@@H]1O | > 300 µM | 93.8 µM |  | 
COCO[C@H]1[C@H](O)[C@@H](O[C@@H]2O[C@H](C)[C@@H](O)[C@H](O)[C@H]2O)[C@H](Oc2cc(O)c3c(c2)O[C@@H](c2ccc(O)cc2)CC3=O)O[C@@H]1CO | 4.1 µM | 57.3 µM |  | 
C[C@@H]1O[C@@H](O[C@H]2[C@H](Oc3cc(O)c4c(c3)O[C@H](c3ccc(O)cc3)CC4=O)O[C@H](CO)[C@@H](O)[C@@H]2O)[C@H](O)[C@H](O)[C@H]1O [NARINGIN] |  |  | 15.6 µM | 110 µM
